Reference: publication PMC9354042, “Discovery of BRAF/HDAC Dual Inhibitors Suppressing Proliferation of Human Colorectal Cancer Cells” (Frontiers in Chemistry, 2022)

Molecular target: T1, HDAC7 (Homo sapiens, UniProt Q8WUI4)
T1 construct: purchased BPS Bioscience
T1 sequence (Q8WUI4 1-952): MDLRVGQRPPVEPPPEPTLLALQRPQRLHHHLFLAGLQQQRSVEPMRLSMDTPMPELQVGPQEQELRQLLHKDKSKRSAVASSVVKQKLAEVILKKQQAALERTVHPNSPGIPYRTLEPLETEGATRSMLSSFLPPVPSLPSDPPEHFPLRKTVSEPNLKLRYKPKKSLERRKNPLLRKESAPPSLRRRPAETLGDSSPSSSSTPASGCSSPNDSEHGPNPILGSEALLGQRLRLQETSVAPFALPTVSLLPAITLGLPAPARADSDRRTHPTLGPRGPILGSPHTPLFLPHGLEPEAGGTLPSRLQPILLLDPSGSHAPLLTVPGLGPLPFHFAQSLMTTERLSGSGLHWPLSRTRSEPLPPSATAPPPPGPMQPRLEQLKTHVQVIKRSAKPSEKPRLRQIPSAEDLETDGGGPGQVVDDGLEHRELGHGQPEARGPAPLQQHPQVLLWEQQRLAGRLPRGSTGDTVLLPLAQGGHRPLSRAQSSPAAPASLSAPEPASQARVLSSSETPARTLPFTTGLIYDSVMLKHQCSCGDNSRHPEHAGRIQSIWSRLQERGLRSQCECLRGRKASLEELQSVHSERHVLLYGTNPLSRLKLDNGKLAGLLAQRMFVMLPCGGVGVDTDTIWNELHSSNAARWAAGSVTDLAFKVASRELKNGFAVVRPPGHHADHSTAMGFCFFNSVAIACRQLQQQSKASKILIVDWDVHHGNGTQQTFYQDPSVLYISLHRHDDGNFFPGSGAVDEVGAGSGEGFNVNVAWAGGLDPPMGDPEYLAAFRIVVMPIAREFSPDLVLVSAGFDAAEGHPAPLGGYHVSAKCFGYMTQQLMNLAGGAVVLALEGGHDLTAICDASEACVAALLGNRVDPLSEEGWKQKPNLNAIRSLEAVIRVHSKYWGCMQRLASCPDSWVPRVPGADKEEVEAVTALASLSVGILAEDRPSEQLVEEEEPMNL
Experiment: HDAC7 fluorescent-based enzymatic activity assay
Type: biochemical
Details: Table 3 isoform panel; read-out: Enzyme inhibition HDAC7 (Class IIA)
Experimental: The purified recombinant Human HDACs and their corresponding substrates were purchased from BPS Bioscience (BPS Bioscience Inc., United States). The assays were carried out in a 384-well format using the BPS fluorescent–based HDAC activity assay according to the manufacturer’s protocol. In brief, […] of the HDAC reaction mixture was composed of HDAC assay buffer, […] BSA, serial diluted test compounds, appropriate concentration of HDACs, and […] fluorogenic substrate, the mixture was incubated at 37°C for 60 min, and then stopped by the addition of developer containing trypsin and TSA. After 20 min of incubation, the fluorescence was detected at the excitation wavelength of 360 nm and the emission wavelength of 460 nm using the EnVision Multilabel Reader (PerkinElmer Inc., United States). The analytical software, GraphPad Prism 5.0 (GraphPad Software, Inc., United States) was used to generate IC50 value via non-linear regression analysis.

IC50: 43.3 µM
Compound: CC(C)(C)c1nc(-c2cccc(NS(=O)(=O)c3c(F)cccc3F)c2F)c(-c2ccnc(NCCCCCCC(=O)NO)n2)s1 [14b, 7-{[4-(2-(Tert-Butyl)-4-(3-((2,6-Difluorophenyl)Sulfonamido)-2-Fluorophenyl)Thiazol-5-yl)Pyrimidin-2-yl]Amino}-N-Hydroxyheptanamide]
